The values below come from patent publication US20100022509A1, “Inhibitors of MshC and Homologs Thereof, and Methods of Identifying Same” (priority 2006, published 2010).

Molecules are shown by their SMILES. Where two headings read alike, the source gives them in different places.

As usually defined, the IC50 is the concentration needed to halve the response being measured. A low value points to greater potency in that assay.

This assay deals with T1, MshC (Mycobacterium tuberculosis, UniProt P9WJM9).
T1 sequence (P9WJM9 1-414): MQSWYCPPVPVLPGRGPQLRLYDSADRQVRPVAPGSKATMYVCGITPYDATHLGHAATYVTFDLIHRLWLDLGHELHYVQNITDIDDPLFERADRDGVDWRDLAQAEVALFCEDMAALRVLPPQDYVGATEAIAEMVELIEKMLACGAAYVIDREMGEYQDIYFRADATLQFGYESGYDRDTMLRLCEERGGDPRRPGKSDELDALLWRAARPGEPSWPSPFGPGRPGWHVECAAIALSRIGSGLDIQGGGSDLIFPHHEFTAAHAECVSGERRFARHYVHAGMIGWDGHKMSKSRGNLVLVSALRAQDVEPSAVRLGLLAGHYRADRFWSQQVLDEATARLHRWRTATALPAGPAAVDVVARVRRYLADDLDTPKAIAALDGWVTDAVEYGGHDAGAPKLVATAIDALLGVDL
The experiment in a line: biochemical. The class given is biochemical, M. tuberculosis.

For `Cc1ccc(C)c(CN2C(=O)c3ccccc3S(=O)(=O)c3ccc(C(=O)NCCCSC4CCCCC4)cc32)c1` [Inhibitor 83-47], the “inhibition of MshC in words, compounds lacking the basic amino group or with groups in excess of 10 carbons on the remote amino residue” value (“inhibition of MshC … on the remote amino residue” below) was “little or no inhibition” and the IC50 was greater than 3 mM.

As for `CCC1CCCCN1CCCNC(=O)c1ccc2c(c1)N(Cc1ccccc1)C(=O)c1ccccc1S2(=O)=O` (centres unmarked) [Inhibitor 83-48], the IC50 is no less than 0.5 mM.

In the case of `CC1CC(C)CN(CCCNC(=O)c2ccc3c(c2)N(Cc2ccccc2)C(=O)c2ccccc2S3(=O)=O)C1` (centres unmarked) [Inhibitor 83-49], the IC50 was roughly 2 mM.

For the molecule `CCN1CCN(CCCNC(=O)c2ccc3c(c2)N(Cc2ccccc2)C(=O)c2ccccc2S3(=O)=O)CC1` [Inhibitor 83-50], the IC50 is greater than 3 mM.

The molecule `CC1CCCN(CCCNC(=O)c2ccc3c(c2)N(Cc2ccccc2)C(=O)c2ccccc2S3(=O)=O)C1` (centres unmarked) [Inhibitor 83-51] registered an IC50 of 1.7 ± 0.4 mM.

On to `O=C(NCCCN1CCN(Cc2ccccc2)CC1)c1ccc2c(c1)N(Cc1ccccc1)C(=O)c1ccccc1S2(=O)=O` [Inhibitor 83-52], for which the “inhibition of MshC … on the remote amino residue” value was “little or no inhibition” and 2.5 ± 1.2 mM corresponded to half-maximal inhibition (IC50).

`CC(C)CN(CCCNC(=O)c1ccc2c(c1)N(Cc1ccccc1)C(=O)c1ccccc1S2(=O)=O)CC(C)C` [Inhibitor 83-53] returned a 50% inhibitory concentration (IC50) greater than 3 mM.

In the case of `CN(CCNC(=O)c1ccc2c(c1)N(Cc1ccccc1)C(=O)c1ccccc1S2(=O)=O)C1CCCCC1` [Inhibitor 83-54], the “inhibition of MshC in words, 1,3-diaminopropyl residue with remote amino residue capable of protonation” value (from here on “inhibition of MshC in words … of protonation”) is “measurable inhibition”; the “inhibition of MshC in words, Z benzyl moiety with methyl groups in the 2,5 positions or unsubstituted” value was “Weak but detectable inhibition”; the IC50 turned out to be 0.51 ± 0.08 mM. For the same molecule, the “inhibition of MshC in words, compounds grouped by X” value (shortened to “inhibition of MshC in words … by X”) (X=S, X=SO, X=SO2) was “Significant inhibition”.

For the molecule `O=C(NCCCSC1CCCCC1)c1ccc2c(c1)N(Cc1ccccc1)C(=O)c1ccccc1S2(=O)=O` [Inhibitor 83-55], the “inhibition of MshC … on the remote amino residue” value is recorded as “little or no inhibition” and the 50% inhibitory concentration (IC50) is greater than 3 mM.

For `O=C(NCCN1CCN(Cc2ccccc2)CC1)c1ccc2c(c1)N(Cc1cccc(Cl)c1)C(=O)c1ccccc1[S+]2[O-]` (centres unmarked) [Inhibitor 83-56], the “inhibition of MshC … on the remote amino residue” value is given as “little or no inhibition” and the IC50 is greater than 3 mM.

For `CC1CCCN(CCCNC(=O)c2ccc3c(c2)N(Cc2cccc(Cl)c2)C(=O)c2ccccc2S3(=O)=O)C1` (centres unmarked) [Inhibitor 83-57], the IC50 was roughly 1 mM.

As for `O=C(NCCCC1CCCCCC1)c1ccc2c(c1)N(Cc1cccc(Cl)c1)C(=O)c1ccccc1S2(=O)=O` [Inhibitor 83-58], the “inhibition of MshC in words, Z is a benzyl moiety bearing one or more halogens” value is listed as “Measurable inhibition” and the IC50 is no less than 0.5 mM.

Consider `CN(CCCNC(=O)c1ccc2c(c1)N(Cc1cccc(Cl)c1)C(=O)c1ccccc1S2(=O)=O)c1ccccc1` [Inhibitor 83-59], for which the IC50 is greater than 3 mM.

With `CCCCN(C)CCCNC(=O)c1ccc2c(c1)N(Cc1cccc(Cl)c1)C(=O)c1ccccc1[S+]2[O-]` (centres unmarked) [Inhibitor 83-60], where the note is “X=S, X=SO, X=SO2”, the “inhibition of MshC in words … by X” value is listed as “Significant inhibition”.

With `O=C(NCCCSC1CCCCC1)c1ccc2c(c1)N(Cc1cccc(Cl)c1)C(=O)c1ccccc1[S+]2[O-]` (centres unmarked) [Inhibitor 83-61], the “inhibition of MshC … on the remote amino residue” value is “little or no inhibition” and the IC50 is roughly 1 mM.

As to `O=C(NCCN1CCN(Cc2ccccc2)CC1)c1ccc2c(c1)N(Cc1cccc(Cl)c1)C(=O)c1ccccc1[S+]2[O-]` (centres unmarked) [Inhibitor 83-62], the “inhibition of MshC … on the remote amino residue” value is given as “little or no inhibition” and 2.1 ± 0.9 mM corresponded to half-maximal inhibition (IC50).

Turning to `CN(CCCNC(=O)c1ccc2c(c1)N(Cc1cccc(Cl)c1)C(=O)c1ccccc1[S+]2[O-])c1ccccc1` (centres unmarked) [Inhibitor 83-63], the IC50 was greater than 2 mM.

For the molecule `CC1CCCN(CCCNC(=O)c2ccc3c(c2)N(Cc2cccc(Cl)c2)C(=O)c2ccccc2[S+]3[O-])C1` (centres unmarked) [Inhibitor 83-64], the “inhibition of MshC in words … of protonation” value is on record as “measurable inhibition”; the “inhibition of MshC in words, Z is a benzyl moiety bearing one or more halogens” value was “Measurable inhibition”; the IC50 came to 0.15 ± 0.03 mM. The “inhibition of MshC in words … by X” value (X=S, X=SO, X=SO2) is “Significant inhibition”.

In the case of `CC1CC(C)CN(CCCNC(=O)c2ccc3c(c2)N(Cc2cccc(Cl)c2)C(=O)c2ccccc2[S+]3[O-])C1` (centres unmarked) [Inhibitor 83-65], the “inhibition of MshC in words … of protonation” value is listed as “measurable inhibition” and the “inhibition of MshC in words, Z is a benzyl moiety bearing one or more halogens” value is “Measurable inhibition”. Moreover, for the setting “X=S, X=SO, X=SO2”, the “inhibition of MshC in words … by X” value was “Significant inhibition”.

Regarding `CCC1CCCN(CCCNC(=O)c2ccc3c(c2)N(Cc2cccc(Cl)c2)C(=O)c2ccccc2[S+]3[O-])C1` (centres unmarked) [Inhibitor 83-66], the “inhibition of MshC in words … of protonation” value is “measurable inhibition”; the “inhibition of MshC in words, Z is a benzyl moiety bearing one or more halogens” value is reported as “Measurable inhibition”; the IC50 came to 0.08 ± 0.02 mM. Further, where the note is “X=S, X=SO, X=SO2”, the “inhibition of MshC in words … by X” value is given as “Significant inhibition”.

In the case of `CC(C)CN(CCCNC(=O)c1ccc2c(c1)N(Cc1cccc(Cl)c1)C(=O)c1ccccc1[S+]2[O-])CC(C)C` (centres unmarked) [Inhibitor 83-67], the IC50 is roughly 3 mM.

Consider `O=C(NC1CCN(Cc2ccccc2)CC1)c1ccc2c(c1)N(Cc1cccc(Cl)c1)C(=O)c1ccccc1[S+]2[O-]` (centres unmarked) [Inhibitor 83-68], for which inhibition was half-maximal at 1.5 ± 0.5 mM (IC50).

Take `O=C(NCCN1CCN(Cc2ccccc2)CC1)c1ccc2c(c1)N(Cc1cccc(Cl)c1)C(=O)c1ccccc1[S+]2[O-]` (centres unmarked) [Inhibitor 83-69]: the “inhibition of MshC … on the remote amino residue” value is recorded as “little or no inhibition” and half-maximal inhibition (IC50) was put at 2.5 ± 0.7 mM.

In the case of `O=C(NCCCN1CCOCC1)c1ccc2c(c1)N(Cc1cccc(Cl)c1)C(=O)c1ccccc1[S+]2[O-]` (centres unmarked) [Inhibitor 83-70], the “inhibition of MshC in words … of protonation” value is reported as “measurable inhibition”; the “inhibition of MshC in words, Z is a benzyl moiety bearing one or more halogens” value was “Measurable inhibition”; the “inhibition of MshC in words … by X” value is given as “Significant inhibition”; inhibition was half-maximal at 0.47 ± 0.13 mM (IC50).

`O=C(NCCCN1CCCC1)c1ccc2c(c1)N(Cc1cccc(Cl)c1)C(=O)c1ccccc1[S+]2[O-]` (centres unmarked) [Inhibitor 83-72]: the “inhibition of MshC in words … of protonation” value is “measurable inhibition”; the “inhibition of MshC in words, Z is a benzyl moiety bearing one or more halogens” value is reported as “Measurable inhibition”; the midpoint of inhibition, the IC50, lay at 0.097 ± 0.026 mM. For the same molecule, the “inhibition of MshC in words … by X” value (X=S, X=SO, X=SO2) is “Significant inhibition”.

`CCCN(CCC)CCCNC(=O)c1ccc2c(c1)N(Cc1cccc(Cl)c1)C(=O)c1ccccc1[S+]2[O-]` (centres unmarked) [Inhibitor 83-73]: the “inhibition of MshC in words … of protonation” value is “measurable inhibition”; the “inhibition of MshC in words, Z is a benzyl moiety bearing one or more halogens” value is on record as “Measurable inhibition”; the IC50 was roughly 0.2 mM. Also, where the note is “X=S, X=SO, X=SO2”, the “inhibition of MshC in words … by X” value is listed as “Significant inhibition”.

For the molecule `CCCCSCCCNC(=O)c1ccc2c(c1)N(Cc1cccc(Cl)c1)C(=O)c1ccccc1[S+]2[O-]` (centres unmarked) [Inhibitor 83-74], the “inhibition of MshC … on the remote amino residue” value was “little or no inhibition” and the IC50 is greater than 3 mM.

As to `O=C(NCCN1CCCCCC1)c1ccc2c(c1)N(Cc1cccc(Cl)c1)C(=O)c1ccccc1[S+]2[O-]` (centres unmarked) [Inhibitor 83-75], the “inhibition of MshC in words … of protonation” value is recorded as “measurable inhibition”; the “inhibition of MshC in words, Z is a benzyl moiety bearing one or more halogens” value is given as “Measurable inhibition”; the IC50 is roughly 0.08 mM. Under “X=S, X=SO, X=SO2”, the “inhibition of MshC in words … by X” value is “Significant inhibition”.

Regarding `CCCCN(CCCNC(=O)c1ccc2c(c1)N(Cc1cccc(Cl)c1)C(=O)c1ccccc1[S+]2[O-])Cc1ccccc1` (centres unmarked) [Inhibitor 83-76], the IC50 was no less than 3 mM.

`CC1CC(C)CN(CCCNC(=O)c2ccc3c(c2)N(Cc2cccc(Cl)c2)C(=O)c2ccccc2S3(=O)=O)C1` (centres unmarked) [Inhibitor 83-77]: the IC50 came out at 2.3 ± 0.7 mM.

In the case of `O=C(NCCCN1CCCC1)c1ccc2c(c1)N(Cc1cccc(Cl)c1)C(=O)c1ccccc1S2(=O)=O` [Inhibitor 83-78], the “inhibition of MshC in words … of protonation” value is recorded as “measurable inhibition”; the “inhibition of MshC in words, Z is a benzyl moiety bearing one or more halogens” value was “Measurable inhibition”; the IC50 is roughly 0.5 mM. In addition, the “inhibition of MshC in words … by X” value (X=S, X=SO, X=SO2) is “Significant inhibition”.

With `O=C(NCCN1CCN(Cc2ccccc2)CC1)c1ccc2c(c1)N(Cc1cccc(Cl)c1)C(=O)c1ccccc1S2(=O)=O` [Inhibitor 83-79], the “inhibition of MshC … on the remote amino residue” value is recorded as “little or no inhibition” and the IC50 was greater than 3 mM.

In the case of `O=C(NCC1CCN(Cc2ccccc2)CC1)c1ccc2c(c1)N(Cc1cccc(Cl)c1)C(=O)c1ccccc1S2(=O)=O` [Inhibitor 83-80], the 50% inhibitory concentration (IC50) was greater than 3 mM.

`CC(C)CN(CCCNC(=O)c1ccc2c(c1)N(Cc1cccc(Cl)c1)C(=O)c1ccccc1S2(=O)=O)CC(C)C` [Inhibitor 83-81]: the IC50 was greater than 3 mM.

Turning to `O=C(NCCCN1CCOCC1)c1ccc2c(c1)N(Cc1cccc(Cl)c1)C(=O)c1ccccc1S2(=O)=O` [Inhibitor 83-82], the IC50 was roughly 3 mM.
